For experiment [1], the system named is CPP32. Kind of experiment: Assay for dATP-dependent activation of CPP32 protease (cleavage of in vitro translated 35S-labeled CPP32 in HeLa S-100). The format is biochemical, hamster. The note with it: 1 mM nucleotide, 30° C., 1 hr. The procedure: The samples were subjected to SDS-PAGE and transferred to a nitrocellulose filter. The filter was exposed to film for 16 hours at room temperature. In FIG. 2B, a 50 μl aliquot of HeLa S-100 (250 μg) was incubated with each aliquot of 6 μl hamster liver nuclei at 37° C. for 2 hr in the presence of 1 mM indicated nucleotide. The DNA was isolated, analyzed by 2% agarose gel electrophoresis and visualized by ethidium bromide staining.
To test the nucleotide specificity for activation of CPP32 and DNA fragmentation, HeLa cell S-100 was incubated with in vitro translated, ^35S-labeled CPP32 in the presence of 1 mM of various nucleotides (FIG. 2A).
A PCR fragment encoding amino acids 29-277 of hamster CPP32 [Wang et al. (1996) supra] was cloned into NdeI and BamHI sites of pET 15b vector (Novagen, Madison, Wis.). The resulting fusion protein of six histidines with hamster CPP32 (amino acids 29-277) was translated in a TNT T7 transcription/translation kit (Promega, Madison, Wis.) in the presence of ^35S-methionine according to the manufacturer's instructions. The translated protein was passed through a 1 ml nickel affirmity column (Qiagen, Chatsworth, Calif.) equilibrated with buffer A. After washing the column with 10 ml of buffer A, the translated CPP32 was eluted with buffer A containing 250 mM imidazole. Human SREBP-2 was translated in a TNT SP6 transcription/translation kit as described [Wang et al. (1995) [Hua et al. (1993) Proc. Natl. Acad. Sci. USA 90, 11603-11607]. Full length human PARP cDNA [Chemey et al. (1987) Proc. Natl. Acad. Sci. USA 84, 8370-8374] was cloned into SmaI and EcoRI sites of pBK-CMV vector (Stratagene, La Jolla, Calif.) and translated in a TNT T7 transcription/translation kit [Promega, Madison, Wis.]. The translated SREBP-2 and PARP (200 μl each) were purified by passing each translation mixture through a 10-ml Sephadex G-25 gel-filtration column equilibrated with buffer A. The translated proteins contained within the exclusion volume of the column were collected.
CPP32 was translated and purified as described above. Aliquot of 3 μl of the in vitro translated CPP32 was incubated with the indicated protein fraction, nucleotides, and 1 mM additional MgCl2 at 30° C. for 1 hour in a final volume of 20 μl of buffer A. At the end of the incubation, 7 μl of 4×SDS sample buffer was added to each reaction. After boiling for 3 min, each sample was subjected to a 15% SDS-polyacrylamide gel electrophoresis (SDS-PAGE). The gel was transferred to a nitrocellulose filter which was subsequently exposed to a Kodak X-OMAT AR X-ray film (Eastman Kodak, Rochester, N.Y.) for 16 hr at room temperature.

Experiment [2] deals with CPP32. Kind of experiment: Apaf-2 activity: recombining with phosphocellulose flow through fraction (Apaf-1) and 35S-labeled CPP32. To be noted: phosphocellulose fraction alone, with or without 1 mM dATP. Format: biochemical, human. The procedure:
FIG. 3 illustrates fractionation and reconstitution of dATP-dependent activation of CPP32 by phosphocellulose chromatography. HeLa cell S-100 was subjected to phosphocellulose chromatography and the column flow through and bound material were collected as described in the Examples. Aliquots (10 μl) of HeLa S-100 (50 μg) (lanes 1 and 2), phosphocellulose flow through fraction (PC-FT) (lanes 3 and 4), phosphocellulose bound fraction (PC-B) (lanes 5 and 6), and the mixture of phosphocellulose flow through and bound material (lanes 7 and 8) were incubated with aliquots of 3 μl in vitro translated, ^35S-labeled CPP32 at 30° C. for 1 hr in the absence (lanes 1,3,5,7) or presence (lanes 2,4,6,8) of 1 mM dATP. The samples were subjected to SDS-PAGE, transferred to a nitrocellulose filter, and the filter was exposed to film for 16 hours at room temperature.
The Apaf-2 activity that bound to the phosphocellulose column was purified through the Mono S column as described in Example 7. […] In FIG. 4B, aliquots (30 μl) of the Mono-S fractions were subjected to 15% SDS-PAGE and the proteins were visualized by silver staining.
Aliquots of 0.2 μg of Apaf-2 purified through the Mono S column (lanes 1, 2), cytochrome c from bovine heart (lanes 3, 4), and rat liver (lanes 5, 6) were incubated with aliquots of 10 μl phosphocellulose flowthrough fraction and 3 μl in vitro translated, 35S-labeled CPP32 at 30° C. for 1 hr in a final volume of 20 μl buffer A in the absence (lanes 1,3,5) or presence of (lanes 2, 4, 6) 1 mM dATP. Samples were subjected to SDS-PAGE and transferred to a nitrocellulose filter which was then exposed to a film for 16 hr at room temperature.
To isolate the protein(s) required for the activation of CPP32, HeLa S-100 was loaded onto a phosphocellulose column, and the flow-through and bound fractions were collected. […] When the flowthrough and bound fractions were mixed, CPP32-activating activity was restored (lanes 7-8). […] The factor(s) that flow through the phosphocellulose column are designated apoptotic protease activating factor-1 (Apaf-1) and the factor that bound to the column is designated apoptotic protease activating factor-2 (Apaf-2). It is understood that “Apaf-1” may represent more than one protein or it may represent a combination of protein(s) and other factors.
Apaf-2 activity was assayed by recombining with Apaf-1 after purification by the following steps. First, the Apaf-2 fraction was subjected to 50% ammonium sulfate precipitation. All of the activity remained in the supernatant while most of the protein precipitated (Table I). The supernatant was loaded onto a phenyl-sepharose (hydrophobic interaction) column and the activity was eluted with 1 M ammonium sulfate. The eluate was passed through a gel filtration column; active fractions were subjected to sequential Mono Q (anion exchange) and Mono S (cation exchange) chromatography. The Apaf-2 activity flowed through the Mono Q column, and the flow through was directly loaded onto the Mono S column. Bound Apaf-2 activity was then eluted with a 100-300 mM NaCl linear salt gradient. The fractions from the Mono S column were collected and assayed. […] The active fractions were analyzed by SDS-PAGE (FIG. 4B). A protein of apparent molecular mass of 15 kDa was co-eluted with the activity. No other proteins were detected by silver staining in the active Apaf-2 fractions.
CPP32 was translated and purified as described above. […]

The values below come from US6558900B2, “Regulation of apoptosis and in vitro model for studies thereof” (Emory University, priority 1996, dated 2003).

With `Nc1ncnc2c1ncn2[C@H]1C[C@H](O)[C@@H](COP(=O)(O)OP(=O)(O)OP(=O)(O)O)O1` [dATP, deoxyadenosine-5-triphosphate], in the experiment with CPP32 [1], the “cleavage of 35S-labeled CPP32 (nucleotide specificity)” value is “Cleavage occurred”.
Regarding “Apaf-2: 15 kDa factor bound to phosphocellulose column, purified from HeLa S-100, identified as human cytochrome c”, the “dATP-dependent activation of CPP32 by fraction alone” value in the experiment on CPP32 [2] is recorded as “Neither fraction alone supported dATP-dependent activation of CPP32”.
